# How the values were obtained:
# Assay type in all cases: in vivo
# [1] = tested on: barnyardgrass (Echinochloa crus-galli); assay: Test B flooded paddy test
# How it was run: (§1)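 Post-flood paddy application: compounds are introduced into water 3 cm deep over the soil, reaching plants at the 2-leaf stage. The water level is maintained, and after 13–15 days under greenhouse conditions, response is judged by eye relative to controls, where 100 means complete control.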
# rice (Oryza sativa) = assay: Test B flooded paddy test
# How it was run: as §1
# [2] = tested on: umbrella sedge (Cyperus difformis); assay: Test B flooded paddy test
# How it was run: as §1
# [3] = tested on: ducksalad (Heteranthera limosa); assay: Test B flooded paddy test
# How it was run: as §1
# [4] = tested on: bermudagrass (Cynodon dactylon); assay: Test B pre-/postemergence plant response
# How it was run: (§2)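 Test compounds, formulated in a non-phytotoxic solvent mixture with surfactant, are applied to the soil surface (loam and sand blend) right after seeding, or sprayed over plants at the 1- to 4-leaf stage grown in peat moss/vermiculite medium. After 13 to 15 days under glasshouse conditions, each species is scored visually from 0 (no effect) to 100 (complete control) against controls.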
# [5] = tested on: cocklebur (Xanthium strumarium); assay: Test B pre-/postemergence plant response
# How it was run: as §2
# [6] = tested on: pigweed (Amaranthus retroflexus); assay: Test B pre-/postemergence plant response
# How it was run: as §2
# [7] = tested on: ragweed (common ragweed, Ambrosia elatior); assay: Test B pre-/postemergence plant response
# How it was run: as §2
# kochia (Kochia scoparia) = assay: Test B pre-/postemergence plant response; conditions: Postemergence; for Plant response rating, Kochia: scale 0 (no effect) to 100 (complete control)
# How it was run: as §2
# corn (Zea mays) = assay: Test B pre-/postemergence plant response
# How it was run: as §2
# [8] = tested on: green foxtail (Setaria viridis); assay: Test B pre-/postemergence plant response
# How it was run: as §2
# [9] = tested on: johnsongrass (Sorghum halepense); assay: Test B pre-/postemergence plant response
# How it was run: as §2
# wild oat (Avena fatua) = assay: Test B pre-/postemergence plant response
# How it was run: as §2
# [10] = tested on: lambsquarters (Chenopodium album); assay: Test B pre-/postemergence plant response
# How it was run: as §2
# soybean (Glycine max) = assay: Test B pre-/postemergence plant response
# How it was run: as §2
# [11] = tested on: giant foxtail (Setaria faberii); assay: Test B pre-/postemergence plant response
# How it was run: as §2
# [12] = 250 g ai/ha, flooded paddy test, visual rating on 0 to 100 scale (0 no effect, 100 complete control) after 13 to 15 days
# [13] = Flood (flooded paddy test), 62 g ai/ha, scale 0 to 100, 0 is no effect, 100 is complete control, 13 to 15 days
# [14] = 250 g ai/ha, Preemergence, 0 to 100 scale
# [15] = Postemergence, 31 g ai/ha, scale 0 to 100 (0 no effect, 100 complete control)
# [16] = Postemergence, 62 g ai/ha, scale 0 (no effect) to 100 (complete control), 13 to 15 days
# [17] = Postemergence, 125 g ai/ha, visual rating after 13 to 15 days, scale 0 (no effect) to 100 (complete control)
# [18] = Postemergence, 250 g ai/ha, scale 0 to 100
# [19] = Preemergence, 31 g ai/ha, scale 0 to 100 (0 no effect, 100 complete control)
# [20] = Preemergence, 62 g ai/ha, scale 0 to 100, 0 no effect, 100 complete control
# [21] = Preemergence, 125 g ai/ha, 0 to 100 scale
structure (smiles),measurement,setting,value
Cc1ccc(-n2c(-c3cccc(Cl)c3)ncc(C(=O)C3=C(O)CCCC3=O)c2=O)cc1 [Compound 39],"Plant response rating, Flood, Barnyardgrass",[1]; [12],30
same,"Plant response rating, Barnyardgrass",[1]; [13],0
same,"Plant response rating, Flood, Rice",rice (Oryza sativa); [12],15
same,"Plant response rating, Rice",rice (Oryza sativa); [13],0
same,"Plant response rating, Flood, Sedge, Umbrella",[2]; [12],90
same,"Plant response rating, Sedge, Umbrella",[2]; [13],90
same,"Plant response rating, Flood, Ducksalad",[3]; [12],90
same,"Plant response rating, Ducksalad",[3]; [13],80
same,"Plant response rating, Bermudagrass",[4]; [14],100
same,"Plant response rating, Bermudagrass",[4]; [15],50
same,"Plant response rating, Bermudagrass",[4]; [16],60
same,"Plant response rating, Bermudagrass",[4]; [17],85
same,Bermudagrass plant response rating,[4]; [18],100
same,"Plant response rating, Bermudagrass",[4]; [19],85
same,"Plant response rating, Bermudagrass",[4]; [20],100
same,Bermudagrass plant response rating,[4]; [21],100
same,"Plant response rating, Cocklebur",[5]; [14],45
same,"Plant response rating, Cocklebur",[5]; [15],75
same,"Plant response rating, Cocklebur",[5]; [16],75
same,"Plant response rating, Cocklebur",[5]; [17],95
same,Cocklebur plant response rating,[5]; [18],98
same,"Plant response rating, Cocklebur",[5]; [19],0
same,"Plant response rating, Pigweed",[6]; [14],100
same,"Plant response rating, Pigweed",[6]; [16],100
same,"Plant response rating, Pigweed",[6]; [17],100
same,"Plant response rating, Pigweed",[6]; [19],90
same,Pigweed plant response rating,[6]; [21],100
same,"Plant response rating, Ragweed",[7]; [14],95
same,"Plant response rating, Ragweed",[7]; [16],85
same,"Plant response rating, Ragweed",[7]; [17],95
same,"Plant response rating, Ragweed",[7]; [19],0
same,Ragweed plant response rating,[7]; [21],75
same,"Plant response rating, Kochia","kochia (Kochia scoparia); 62 g ai/ha, 13 to 15 days",45
same,"Plant response rating, Kochia","kochia (Kochia scoparia); 125 g ai/ha, visual rating after 13 to 15 days",60
same,Kochia plant response rating,"kochia (Kochia scoparia); 250 g ai/ha, scale 0 to 100",95
same,"Plant response rating, Corn",corn (Zea mays); [14],0
same,"Plant response rating, Corn",corn (Zea mays); [15],25
same,"Plant response rating, Corn",corn (Zea mays); [16],45
same,"Plant response rating, Corn",corn (Zea mays); [17],45
same,Corn plant response rating,corn (Zea mays); [18],65
same,"Plant response rating, Corn",corn (Zea mays); [19],0
same,"Plant response rating, Corn",corn (Zea mays); [20],0
same,Corn plant response rating,corn (Zea mays); [21],0
same,"Plant response rating, Foxtail, Green",[8]; [14],100
same,"Plant response rating, Foxtail, Green",[8]; [15],80
same,"Plant response rating, Foxtail, Green",[8]; [16],80
same,"Plant response rating, Foxtail, Green",[8]; [17],90
same,"Foxtail, Green plant response rating",[8]; [18],90
same,"Foxtail, Green plant response rating",[8]; [21],75
same,"Plant response rating, Johnsongrass",[9]; [14],75
same,"Plant response rating, Johnsongrass",[9]; [16],65
same,"Plant response rating, Johnsongrass",[9]; [17],90
same,Johnsongrass plant response rating,[9]; [18],98
same,"Plant response rating, Johnsongrass",[9]; [19],0
same,"Plant response rating, Johnsongrass",[9]; [20],60
same,Johnsongrass plant response rating,[9]; [21],65
same,"Plant response rating, Oat, Wild",wild oat (Avena fatua); [14],0
same,"Plant response rating, Oat, Wild",wild oat (Avena fatua); [16],20
same,"Plant response rating, Oat, Wild",wild oat (Avena fatua); [17],30
same,"Plant response rating, Oat, Wild",wild oat (Avena fatua); [19],0
same,"Oat, Wild plant response rating",wild oat (Avena fatua); [21],0
same,"Plant response rating, Lambsquarters",[10]; [14],100
same,"Plant response rating, Lambsquarters",[10]; [16],95
same,"Plant response rating, Lambsquarters",[10]; [17],100
same,Lambsquarters plant response rating,[10]; [18],100
same,"Plant response rating, Lambsquarters",[10]; [19],100
same,"Plant response rating, Lambsquarters",[10]; [20],100
same,Lambsquarters plant response rating,[10]; [21],100
same,"Plant response rating, Soybean",soybean (Glycine max); [14],0
same,"Plant response rating, Soybean",soybean (Glycine max); [16],95
same,"Plant response rating, Soybean",soybean (Glycine max); [17],98
same,"Plant response rating, Soybean",soybean (Glycine max); [19],0
same,Soybean plant response rating,soybean (Glycine max); [21],0
same,"Plant response rating, Foxtail, Giant",[11]; [14],75
same,"Plant response rating, Foxtail, Giant",[11]; [15],75
same,"Plant response rating, Foxtail, Giant",[11]; [16],85
same,"Plant response rating, Foxtail, Giant",[11]; [17],95
same,"Foxtail, Giant plant response rating",[11]; [18],95
same,"Plant response rating, Foxtail, Giant",[11]; [19],0
same,"Plant response rating, Foxtail, Giant",[11]; [20],45
same,"Foxtail, Giant plant response rating",[11]; [21],70
